Measured values reported in patent publication US4190642A, “Ocular therapeutic system for dispensing a medication formulation” (Alza Corporation, priority 1979, dated 1980).
Counter-ions that a name gives are not always drawn. Like-named read-outs stand apart in the source and are kept apart here.

Key:
[1] = osmotic pressure (vapor pressure osmometer); format: physicochemical
Excerpt: System 10 houses in depot 14 from about 1 to 40 weight percent of pilocarpine solute and from 1 to 25 weight percent of epinephrine solute, with the remaining weight percent of system 10 polymer 12. […] Generally, the pilocarpine solute and the epinephrine solute will have a particle size of about 0.1 to 100 microns, and a presently preferred particle size of about 0.5 to 20 microns. […] This application and the copending application are both assigned to the Alza Corporation of Palo Alto, California.
The osmotic pressure, ATM, of the above solutes can be measured in a commercially available osmometer that measures the vapor pressure difference between pure water and the solution containing a solute to be analyzed, and according to standard thermodynamic principles, the vapor pressure ratio is converted into osmotic pressure difference.

solubility in water = assay: solubility in water
Excerpt: System 10 houses in depot 14 from about 1 to 40 weight percent of pilocarpine solute and from 1 to 25 weight percent of epinephrine solute, with the remaining weight percent of system 10 polymer 12. […] Generally, the pilocarpine solute and the epinephrine solute will have a particle size of about 0.1 to 100 microns, and a presently preferred particle size of about 0.5 to 20 microns. The osmotic delivery device consisting of sole drug solute of a specific particle size dispersed in a polymer is the invention of Michaels and Guillod as disclosed and claimed in copending U.S. Patent Application Ser. No. 855,605, filed on Nov. 29, 1977. This application and the copending application are both assigned to the Alza Corporation of Palo Alto, California.
Next, the contents of the bowl are removed, cut into 3 mm ×3 mm pieces with a multi-blade strip die and the strips fed to the hopper of an extruder. The pieces have a residence time of 5 minutes in the extruder with the screw of the extruder rotating at 20 rpm. A film is extruded through a 12 mil opening at the end of the extruder and punched into 13.5×5.8 mm inserts.

solubility (solubility in water; water) | solubility (solubility in water; water, solubility in water) | SMILES | osmotic pressure [1] | osmotic pressure ([1]; Example 5) | osmotic pressure ([1]; hydrochloride) | solubility (solubility in water; water solution, hydrochloride) | solubility (solubility in water; water, solubility in water, 37° C.) | solubility (solubility in water; water, solubility, water solution)
27 grams in 100 ml of water solution | 270 mg/mL | CC[C@@H]1C(=O)OC[C@@H]1Cc1cncn1C [pilocarpine nitrate] | 37 atmospheres | 37 ATM | – | – | – | –
– | – | CNC[C@H](O)c1ccc(O)c(O)c1 [epinephrine hydrochloride] | – | – | 185 atmospheres | 80 grams in 100 ml of water solution | – | –
– | – | CNC[C@H](O)c1ccc(O)c(O)c1 [epinephrine bitartrate] | 78.5 atmospheres | 78.5 ATM | – | – | 670 mg/mL | 670 mg/mL
80 grams in 100 ml of water solution | – | CC[C@@H]1C(=O)OC[C@@H]1Cc1cncn1C [pilocarpine hydrochloride] | – | – | 300 atmospheres | – | – | –
